Legend:
[1] = Binding affinity to human RFC expressed in Chinese hamster PC43-10 cells assessed as antiproliferative activity measured as reduction in cell viability after 96 hrs by Cell-Titer Blue assay
[2] = Binding affinity to human PCFT expressed in Chinese hamster R2/PCFT4 cells assessed as antiproliferative activity measured as reduction in cell viability after 96 hrs by Cell-Titer Blue assay
[3] = Binding affinity to human FR-beta receptor expressed in Chinese hamster D4 cells assessed as antiproliferative activity measured as reduction in cell viability after 96 hrs by Cell-Titer Blue assay
[4] = Binding affinity to human FR-alpha receptor expressed in Chinese hamster RT16 cells assessed as antiproliferative activity measured as reduction in cell viability after 96 hrs by Cell-Titer Blue assay
[5] = Binding affinity to human FR-beta receptor expressed in Chinese hamster D4 cells assessed as antiproliferative activity measured as reduction in cell viability after 96 hrs in presence of folic acid by Cell-Titer Blue assay
[6] = Binding affinity to human FR-alpha receptor expressed in Chinese hamster RT16 cells assessed as antiproliferative activity measured as reduction in cell viability after 96 hrs in presence of folic acid by Cell-Titer Blue assay

| Structure (SMILES) | IC50 [1] | IC50 [2] | IC50 [3] | IC50 [4] | IC50 [5] | IC50 [6] |
| --- | --- | --- | --- | --- | --- | --- |
| Nc1nc2[nH]c(CCC#Cc3ccc(C(=O)N[C@@H](CCC(=O)O)C(=O)O)cn3)cc2c(=O)[nH]1 | > 1 µM | > 1 µM | 0.839 µM | 0.449 µM | > 1 µM | > 1 µM |
| Nc1nc2[nH]c(CCCCc3ccc(C(=O)N[C@@H](CCC(=O)O)C(=O)O)cn3)cc2c(=O)[nH]1 | > 1 µM | > 1 µM | 0.037 µM | 0.015 µM | > 1 µM | > 1 µM |
| Nc1nc2[nH]c(CCC#Cc3ccc(C(=O)N[C@@H](CCC(=O)O)C(=O)O)nc3)cc2c(=O)[nH]1 | > 1 µM | > 1 µM | 0.019 µM | 0.0044 µM | > 1 µM | > 1 µM |
| Nc1nc2[nH]c(CCCCc3cccc(C(=O)N[C@@H](CCC(=O)O)C(=O)O)n3)cc2c(=O)[nH]1 | > 1 µM | – | > 1 µM | 0.186 µM | > 1 µM | > 1 µM |
| Nc1nc2[nH]c(CCCCc3ccc(C(=O)N[C@@H](CCC(=O)O)C(=O)O)nc3)cc2c(=O)[nH]1 | > 1 µM | 0.058 µM | – | – | – | – |
| Nc1nc2[nH]c(CCC#Cc3cccc(C(=O)N[C@@H](CCC(=O)O)C(=O)O)n3)cc2c(=O)[nH]1 | > 1 µM | > 1 µM | > 1 µM | > 1 µM | > 1 µM | > 1 µM |
| C#CCC(Cc1cnc2nc(N)nc(N)c2n1)c1ccc(C(=O)N[C@@H](CCC(=O)O)C(=O)O)cc1 (stereo partly specified) [CHEBI:71223] | 0.00069 µM | 0.057 µM | – | 0.168 µM | – | > 1 µM |
| Nc1nc2[nH]c(CCCCc3ccc(C(=O)N[C@@H](CCC(=O)O)C(=O)O)cc3)cc2c(=O)[nH]1 [N-{4-[4-(2-Amino-4-oxo-4,7-dihydro-3H-pyrrolo[2,3-d]pyrimidin-6-yl)butyl]benzoyl}-L-glutamic Acid] | > 1 µM | – | – | – | – | – |
